In US8273794B2, “Compounds and compositions for delivering active agents” (Emisphere Technologies, Inc., priority 2004, dated 2012):
Several values for one entry are separate records, joined by “and”; a condition that tells them apart may be missing. Equal entries are not always repeated.

Assays:
[1] = Human recombinant insulin oral delivery in rats, whole blood glucose; format: in vivo, Sprague-Dawley rats; settings: oral (liquid dose), delivery agent compound dose 200 mg/kg, insulin dose 0.5 mg/kg
Method: (§1) Insulin (human recombinant) was obtained from ICN Biomedicals (Aurora, Ohio) as a bulk powder. To prepare stock solutions, insulin was dissolved in deionized water (pH˜6.5) to obtain a concentration of 15 mg/ml. Stock solutions were kept frozen at −20° C. in 1.0-ml aliquots until used. For dosing solutions, the delivery agent compound was dissolved in deionized water to obtain a final concentration of 200 mg/ml. The free acid form of delivery agent was converted to the sodium salt by adding one equivalent of sodium hydroxide. Solutions were vortexed, sonicated, and heated, and if necessary, additional sodium hydroxide was added in μl quantities to achieve uniform solubility. Solutions were adjusted to a pH of 3.5-8.5 by the addition of either hydrochloric acid or sodium hydroxide. Insulin stock (typically 66.7 μl) was then added to the delivery agent solution to obtain a final concentration of 0.5 mg/ml. After solubilization and drug addition, solutions were brought to final volume by the addition of deionized water.
(§2) Insulin was administered to male, Sprague-Dawley rats either alone or in combination with an Emisphere delivery agent by oral gavage (PO). Typically, rats were fasted for 18-24 hours prior to dosing. For dosing, a Rusch 8 French catheter was cut to 11 cm in length and adapted to fit a 1-ml syringe. The syringe was filled with dosing solution and the catheter was wiped dry of excess solution. The catheter was inserted into the rat mouth and fed down the esophagus (10.0 cm). The dosing solution was delivered by pressing the syringe plunger while holding the rat in an upright position.
In order to determine the pharmacodynamic response, a hand-held glucometer (OneTouch Ultra, LifeScan® (Johnson & Johnson, New Brunswick, N.J.)) was used to measure whole blood glucose after administration of insulin or insulin and delivery agent. Samples were collected either from the retroorbital sinus (see Sample collection and handling: Insulin) or from the tail artery (i.e. tail clip). For tail clipping, the tip of the tail was severed approximately 5 mm from the tip using a scalpel blade. After discarding the first drop of blood, a small sample (˜5-10 μl) was touched to the glucometer test strip (OneTouch Ultra, LifeScan) and a blood glucose reading was generated by the meter. For each subsequent sampling time point, the clot formed at the tip of the tail was broken up and a fresh sample was collected. Typically, samples were collected prior to dosing (time 0) and at 15, 30, 45, and 60 minutes after dosing.

[2] = Oral and intracolonic heparin delivery in rats, APTT; format: in vivo, Sprague-Dawley rats
Method: (§3) Oral gavage (PO) and/or intracolonic (IC) dosing solutions containing a delivery agent compound and heparin sodium USP in 25% aqueous propylene glycol were prepared. The sodium salt of the compound was used. Typically, delivery agent compound and heparin (about 166-182 IU/mg) were mixed by vortex as dry powders. This dry mixture was dissolved in 25% v/v aqueous propylene glycol, vortexed and placed in a sonicator (about 37° C.). The pH was adjusted to about 7 (6.5 to 8.5) with aqueous NaOH (2N). The dosing solution was sonicated to produce a clear solution. The final volume was adjusted to 3.0 mL. The final delivery agent compound dose, heparin dose and volume dose amounts are listed below in Table 6.
(§4) The typical dosing and sampling protocols were as follows. Male Sprague-Dawley rats weighing between 275-350 g were fasted for 24 hours and were anesthetized with ketamine hydrochloride (88 mg/kg) intramuscularly immediately prior to dosing. A dosing group of five rats was administered one of the dosing solutions. […] Solution was administered by pressing the syringe plunger. […] The dosing catheter was inserted into the colon through the anus until the tube was no longer visible. The dosing solution was injected slowly into the colon.
Citrated blood samples were collected by cardiac puncture following the administration of ketamine (88 mg/kg), typically at time—0.25, 0.5, 1.0 and 1.5 hours. Heparin activity was determined by utilizing the activated partial thromboplastin time (APTT) according to the method of Henry, J. B., Clinical Diagnosis and Management by Laboratory Methods, Philadelphia, Pa., W.B. Saunders (1979). Previous studied indicated baseline values of about 20 sec. Results from the five rats in each group were averaged for each time point. The maximum is reported below in Table 6.

[3] = Human recombinant insulin oral/intracolonic delivery in rats, serum insulin Cmax; format: in vivo, Sprague-Dawley rats
Method: as §1, §2
During blood sampling, rats were exposed briefly (˜10 sec) to carbon dioxide until prostrate, immediately prior to each sampling time point. For blood sampling, a 77-mm capillary tube was inserted into the retroorbital sinus. Typically, blood samples were collected prior to dosing (time 0) and at 15, 30, 45, and 60 minutes after dosing. Samples were collected into CAPIJECT® tubes (Terumo Corporation, Tokyo, Japan) containing a clot activator (red top, serum separator tubes). Samples were allowed to clot for ˜20 min at 4° C. After clotting, samples were centrifuged at 10,000 rpm for 4 minutes at 6° C. in order to separate the serum. Serum was collected into eppendorf tubes and frozen at −20° C. until assayed.

[4] = Intracolonic heparin delivery in rats, antifactor Xa; format: in vivo, Sprague-Dawley rats; settings: IC, volume 1 ml/kg, heparin dose 25 mg/kg
Method: as §3, §4

[5] = Human zinc insulin oral delivery in rats, blood glucose % change; format: in vivo, Sprague-Dawley rats; settings: delivery agent compound dose 200 mg/kg, human zinc insulin dose 0.5 mg/kg
[6] = PYY[3-36] liquid oral delivery in rats, serum PYY by radioimmunoassay; set-up: species or system Sprague-Dawley rats; settings: rat, in vivo
Method: Oral gavage (PO) dosing solutions of delivery agent compound and Peptide YY residues 3-36 (PYY[3-36]) (available from Bachem California Inc. of Torrance, Calif.) in deionized water were prepared as follows.
PYY [3-36] stock solution (80 mg/ml) was prepared with deionized water. Oral dosing compositions containing 200 mg/kg of delivery agent compound and 0.3 mg/kg of PYY in aqueous solution were prepared. A solution of the compound 23 is made with one equivalent to sodium hydroxide to convert the free acid delivery agent to its sodium salt.
Male Sprague-Dawley rats weighing between 240-320 g were fasted up to a maximum 24 hours before the experiments and administered ketamine (44 mg/kg) and thorazine (1.5 mg/kg) by intramuscular injection before the test article administration. Afterwards, the anesthetized animals were administered the test article by oral gavage.
Blood samples were collected serially from the tail artery, or by cardiac puncture, typically at time=0, 15, 30, 45, 60 and 90 minutes. Serum PYY concentrations were quantified using a PYY[3-36] radioimmunoassay (Catalog #RK-059-02 from Phoenix Pharmaceuticals, Inc., Belmont, Calif.). Results from the animals in each group were averaged for each time point. The maximum of these averages (i.e., the mean peak serum PYY[3-36] concentration ±standard deviation (SD)) is reported below in Table 2.

[7] = IC, volume 1 ml/kg, compound dose 50 mg/kg, heparin dose 25 mg/kg
[8] = oral (liquid dose), delivery agent compound dose 100 mg/kg, insulin dose 1 mg/kg

Compound: CC(C)N(C(=O)CCCCCC(=O)O)c1ccccc1 [Compound 23, 7-[isopropyl(phenyl)amino]-7-oxoheptanoic acid]
- melting point: 62 to 63 °C

Compound: CC(C)N(C(=O)CCCCC(=O)O)c1ccccc1 [Compound 24]
- Maximum % drop in glucose from control ± SD [1]: −14.73 ± 17.64%

Compound: CC(CC(=O)O)CC(=O)N(c1ccccc1)C(C)C (centres unmarked) [Compound 25]
- Maximum % drop in glucose from control ± SD [1]: −14.81 ± 12.99%

Compound: CCN(C(=O)CC(C)CC(=O)O)c1ccccc1 (centres unmarked) [Compound 26]
- Maximum % drop in glucose from control ± SD [1]: −25.93 ± 14.86%

Compound: CN(C(=O)CCCCCC(=O)O)c1ccccc1 [Compound 27]
- Maximum % drop in glucose from control ± SD [1]: −25.40 ± 30.61%

Compound: CC(CC(=O)O)CC(=O)N(C)c1ccccc1 (centres unmarked) [Compound 28]
- Maximum % drop in glucose from control ± SD [1]: −11.41 ± 18.92%

Compound: CN(C(=O)CCC(=O)O)c1ccc(Cl)cc1 [Compound 29]
- Maximum % drop in glucose from control ± SD [1]: −29.25 ± 6.97%

Compound: O=C(O)CCCCCCCCC(=O)c1ccccc1O [Compound 114, 10-(2-Hydroxy-phenyl)-10-oxo-decanoic acid]
- melting point: 85 to 87 °C
- Mean Peak APTT (sec) ± SD [2, 7]: 42.90 ± 8.70 s

Compound: COc1ccc(C(=O)CCCC(=O)O)cc1 [Compound 116, 5-(4-Methoxy-phenyl)-5-oxo-pentanoic acid]
- melting point: 141 to 142 °C

Compound: CC(CC(=O)O)NC(=O)c1ccccc1O (centres unmarked) [Compound 140, 3-(2-Hydroxy-benzoylamino)-butyric acid]
- Cmax [3, 8]: Cmax = 81.16 ± 114.98 μIU/mL
- Mean Peak APTT (sec) ± SD [2, 7]: 23.49 ± 6.12 s

Compound: CC(CC(=O)O)NC(=O)c1cc(Br)cc(Br)c1O (centres unmarked) [Compound 141, 3-(3,5-Dibromo-2-hydroxy-benzoylamino)-butyric acid]
- Cmax [3, 8]: Cmax = 204.05 ± 60.88 μIU/mL
- Mean Peak APTT (sec) ± SD [2, 7]: 52.40 ± 21.54 s

Compound: CC(CC(=O)O)NC(=O)c1cc(Cl)cc(Cl)c1O (centres unmarked) [Compound 142, 3-(3,5-Dichloro-2-hydroxy-benzoylamino)-butyric acid]
- Cmax [3, 8]: Cmax = 118.16 ± 72.75 μIU/mL

Compound: CC(CC(=O)O)NC(=O)c1cc(I)cc(I)c1O (centres unmarked) [Compound 143, 3-(2-Hydroxy-3,5-diiodo-benzoylamino)-butyric acid]
- Mean Peak APTT (sec) ± SD [2, 7]: 114.69 ± 121.62 s

Compound: CC(CC(=O)O)NC(=O)c1ccc(Cl)cc1O (centres unmarked) [Compound 145, 3-(4-Chloro-2-hydroxy-benzoylamino)-butyric acid]
- Cmax ([3]; intracolonic, delivery agent compound dose 50 mg/kg, insulin dose 0.1 mg/kg): Cmax = 15.03 ± 7.80 μIU/mL
- Cmax [3, 8]: Cmax = 3.92 ± 5.62 μIU/mL
- Mean Peak APTT (sec) ± SD [2, 7]: 134.42 ± 99.03 s

Compound: CC(CC(=O)O)NC(=O)c1cc(C(C)C)cc(C(C)C)c1O (centres unmarked) [Compound 151, 3-(2-hydroxy-3,5-diisopropyl-benzoylamino)-butyric acid]
- antifactor Xa (mean peak ± SD) ([4]; compound dose 25 mg/kg): 3.39 ± 3.07
- antifactor Xa (mean peak ± SD) ([4]; compound dose 50 mg/kg): 2.36 ± 1.27
- Mean Peak APTT (sec) ± SD ([2]; PO, volume 3 ml/kg, compound dose 300 mg/kg, heparin dose 100 mg/kg): 252.09 ± 107.13 s

Compound: O=C(O)Cc1ccccc1OCc1ccccc1 [Compound 152]
- Glucose (% control) [5]: −29.3%

Compound: COc1ccc(C(=O)O)cc1OCc1ccccc1 [Compound 153]
- Glucose (% control) [5]: −7.1%

Compound: Cc1cc(C(=O)O)cc(C)c1OCc1ccccc1 [Compound 154]
- Glucose (% control) [5]: −7.9%

Compound: O=C(O)Cc1ccc(OCc2ccccc2)cc1 [Compound 158]
- melting point: 110 to 112 °C

Compound: O=C(O)CCCCCOc1ccccc1C(=O)c1ccccc1O [Compound 160, 6-(2-(2-Hydroxybenzoyl)phenoxy)hexanoic acid]
- Cmax ([3]; oral (liquid dose), delivery agent compound dose 200 mg/kg, insulin dose 0.5 mg/kg): Cmax = 74 ± 7.5 μIU/mL
- melting point: 67 to 70 °C
- Mean Peak APTT (sec) ± SD [2, 7]: 131 ± 154 s

Compound: COc1ccc(OCCCC(=O)O)c(C(=O)c2ccccc2O)c1 [Compound 165]
- Maximum % drop in glucose from control ± SD [1]: −33.0%

Compound: O=C(O)CCCOc1ccccc1C(=O)c1ccccc1O [Compound 166, 4-(2-(2-Hydroxybenzoyl)phenoxy)butyric acid]
- Maximum % drop in glucose from control ± SD [1]: −5.7%

Compound: Cc1ccc(OCCCC(=O)O)c(C(=O)c2ccccc2Cl)c1 [Compound 167, 4-(2-Chlorobenzoyl-4-methylphenoxy)butyric acid]
- Maximum % drop in glucose from control ± SD [1]: −21.2% and −17.7% and −26.2% and −17.8% and −22.7%

Compound: O=C(O)CCCCCCCCCCOc1ccccc1OCc1ccccc1 [Compound 177, 11-(2-Benzyloxyphenoxy)undecanoic acid]
- melting point: 62 to 63 °C

Compound: O=C(O)CCCCOc1ccc(OCc2ccccc2)cc1 [Compound 178, 5-(4-Benzyloxy-phenoxy)-pentanoic acid]
- melting point: 127 to 128 °C

Compound: PYY[3-36]: Peptide YY residues 3-36, available from Bachem California Inc.; the active agent, dosed alone
- PYY[3-36] detected in blood [6]: No significant PYY[3-36] was detected
